The text below walks through data of patent US5438057A, “Pharmaceutical compositions” (priority 1991, dated 1995).

Data set [1] relates to acute daunorubicin toxicity. The settings on record: Herman et al, Res. Commun. Chem. Pathol. Pharmacol., 1985, 48, 39; cited from earlier work.
Data set [2] in a line: Solubility in saline / aqueous media. The settings on record: administered as suspension in 0.5% CMC. It counts as physicochemical.
Data set [3] relates to doxorubicin-induced cardiotoxicity. Put plainly: Protective activity against doxorubicin-induced cardiotoxicity: cardiac output, heart rate, survival, congestive heart failure at 8 weeks. It counts as in vivo, Sprague Dawley rats. The settings on record: for Survival: survivors/animals; for Incidence of CHF (congestive heart failure): over 8 weeks. The method, then:
(§1) Mature male Sprague Dawley rats, 13-14 weeks old, weighing 400-500 gm were used. The animals were caged in groups of three and were kept in a constant environment. They were fed 41-B cubed diet and water ad libitum. The animal house was maintained in an alternating 12-hour wake-sleep cycle.
(§2) The cardioprotective activity of (±) trans-1,2-bis(3,5-dioxopiperazin-1-yl)cyclobutane (hereinafter referred to as the compound) was studied in the rats. […] The suspension was prepared shortly before use and was administered at a constant injection volume of 1 ml per 100 gm body weight. Doxorubicin hydrochloride (hereafter referred to as doxorubicin) (Farmitalia, Milan, Italy) was dissolved in sterile water (2 mg/ml) before injection.
(§3) A group of 6 animals received a combined treatment of the compound and doxorubicin. The compound was administered to animals as a single intraperitoneal (i.p.) injection into the lower right quadrant of the abdomen to avoid damage to vital organs. An hour after the administration of the compound, the animals received a single intravenous (i.v.) injection of doxorubicin (4 mg/kg), via the femoral vein. A group of 10 animals received an i.p. injection of saline (1 ml/100 gm) followed by an i.v. injection of saline (0.2 ml/100 gm) one hour later. These rats acted as control animals. Nine animals received an i.p. injection of saline one hour before an i.v. administration of doxorubicin (4 mg/kg). To minimise the effects of circadian timing, doxorubicin administration was carried out between 13.30 hours and 15.30 hours. During intravenous drug administration and for subsequent cardiac output measurements, animals were anaesthetised with choral hydrate (300 mg/kg).
The protective activity of the compound against doxorubicin-induced cardiotoxicity in the rats was assessed at 8 weeks by measuring the cardiac output in animals receiving the treatment using an external counting technique wherein a radioactive tracer, technetium (^99m TcO4), was injected as a bolus into the femoral vein of an anaesthetised animal. The activity time curve over the heart was recorded at 0.1 second intervals for 40 seconds, using an NaI detector connected to a multi-channel analyzer (ND-62, Nuclear Data). ECG and heart rate were determined concomitantly with the cardiac output measurement, using a human ECG monitor (Hewlett Packard 7830A) coupled to a scope memory (model VK-12-2, Seltek Instrument Ltd.) and a chart recorder.
Gross post mortem examinations were carried out on the animals that died during the study as well as those killed at the end of experiment (8 weeks).
(§4) In this study, statistical differences between group means were analysed using Student's t-test.

The test system of data set [4] is daunorubicin toxicity; doxorubicin toxicity. The settings on record: Herman et al, Adv. Pharmacol. Chemother., 1982, 19, 249; cited from earlier work.
Data set [5] in a line: Body weight (general acute toxicity) after i.p. pretreatment and doxorubicin. It counts as in vivo, Sprague Dawley rats. The protocol:
as §1, §2, §3
The animals were weighed daily for up to three weeks after receiving treatment. The maximum reduction in body weight over this period was used as an index for the assessment of general acute toxicity. Animals were also weighed at 4 and 8 weeks to assess the general toxicity of the drug.
as §4

[6] abbreviates: compound 100 mg/kg i.p. + doxorubicin 4 mg/kg i.v. after 1 hour, 8 weeks.
The mark [7] stands for this setting: compound 150 mg/kg i.p. + doxorubicin 4 mg/kg i.v. after 1 hour, 8 weeks.
[8] abbreviates: compound 200 mg/kg i.p. + doxorubicin 4 mg/kg i.v. after 1 hour, 8 weeks.
Where [9] appears, read: compound 100, 150 or 200 mg/kg i.p. + doxorubicin 4 mg/kg.
[10] abbreviates: saline i.p. + doxorubicin 4 mg/kg i.v. after 1 hour.
Where [11] appears, read: saline + doxorubicin 4 mg/kg, 8 weeks.
Where [12] appears, read: saline i.p. + doxorubicin 4 mg/kg i.v. after 1 hour, 8 weeks.

In the case of `O=C1CN(CCCN2CC(=O)NC(=O)C2)CC(=O)N1`, the “protective effect against acute daunorubicin toxicity” value (from here on “protective effect”) in data set [1] is reported as “either no protective activity or only minimal protective activity”.

For `O=C1CN([C@@H]2CC[C@H]2N2CC(=O)NC(=O)C2)CC(=O)N1` (racemic) [Compound, (±) trans-1,2-bis(3,5-dioxopiperazin-1-yl)cyclobutane], the solubility in saline result in data set [2] is on record as “inadequately soluble in saline”. Further, the “change in heart rate” value in data set [3] (animals pretreated with the compound + doxorubicin 4 mg/kg) is reported as “no change in heart rate”. Also, the “RCO: mean relative cardiac output (treated / age-matched control)” value in data set [3] (setting [6]) is 0.80 ± 0.05; in data set [3] (setting [7]), 0.86 ± 0.06; in data set [3] (setting [8]), 0.84 ± 0.05. For the same molecule, the “RHR: mean relative heart rate (treated / age-matched control)” value in data set [3] (setting [6]) turned out to be 1.04 ± 0.03; in data set [3] (setting [7]) it was 1.00 ± 0.04; in data set [3] (setting [8]), 1.05 ± 0.03. Besides, the Survival in data set [3] (setting [6]), in data set [3] (setting [7]) and in data set [3] (setting [8]) was 6/6 in each case. Further, the “Incidence of CHF (congestive heart failure)” value in data set [3] (compound 100 mg/kg i.p. + doxorubicin 4 mg/kg i.v. after 1 hour), in data set [3] (compound 150 mg/kg i.p. + doxorubicin 4 mg/kg i.v. after 1 hour) and in data set [3] (compound 200 mg/kg i.p. + doxorubicin 4 mg/kg i.v. after 1 hour) was 0/6 each time. Besides, the “activity against doxorubicin-induced cardiotoxicity” value in data set [3] (setting [9]) is “significant activity against doxorubicin-induced cardiotoxicity”. Besides, in data set [3] (setting [9]), the “survival (in words)” value was “survived the course of study of 8 weeks”. Moreover, the “signs of congestive failure” value in data set [3] (compound 100, 150 or 200 mg/kg i.p. + doxorubicin 4 mg/kg, 8 weeks) is “without showing any signs of congestive failure”. Also, the “impairment in cardiac output compared to saline and doxorubicin” value in data set [3] (compound 100, 150 or 200 mg/kg i.p. + doxorubicin 4 mg/kg, p<0.001) is recorded as “significantly less impairment in cardiac output”. In data set [3] (dose range 100-200 mg/kg i.p. + doxorubicin 4 mg/kg), the “dose dependence of the protective activity” value is on record as “no indication of dose dependent changes in the protective activity”.

With `CC(CN1CC(=O)NC(=O)C1)N1CC(=O)NC(=O)C1` (racemic) [ICRF 159], the “effectiveness in reducing high dose daunorubicin toxicity relative to doxorubicin toxicity” value in data set [4] is on record as “consistently more effective in reducing high dose daunorubicin toxicity than doxorubicin toxicity”.

Take `CCC(CN1CC(=O)NC(=O)C1)N1CC(=O)NC(=O)C1` (racemic) [R=C2 H5 and R'=R"=H (dl)]: the “protective effect” value in data set [1] is reported as “either no protective activity or only minimal protective activity”.

As to `CC(CN1CC(=O)NC(=O)C1)N1CC(=O)NC(=O)C1` (racemic) [the compound having R=CH3 and R'=R"=H (as the dl, d or l isomer)], in data set [1], the “protective effect” value was “give protection against the lethal effects of daunorubicin”.

Take `CC[C@H]([C@H](C)N1CC(=O)NC(=O)C1)N1CC(=O)NC(=O)C1` (relative stereo) [R: CH3, R'=C2 H5 and R"=H (dl-erythro)]: in data set [1], the “protective effect” value is on record as “either no protective activity or only minimal protective activity”.

Consider `O=C1CN(C2CCC2N2CC(=O)NC(=O)C2)CC(=O)N1` (stereo not drawn) [R+R'=--CH2 --CH2 -- and R"=H], for which the “protective effect” value in data set [1] was “either no protective activity or only minimal protective activity”.

Regarding `CC(CN1CC(=O)N(C)C(=O)C1)N1CC(=O)N(C)C(=O)C1` (stereo not drawn) [R=R"=CH3and R'=H (l)], the “protective effect” value in data set [1] is on record as “either no protective activity or only minimal protective activity”.

On to `C[C@H]([C@H](C)N1CC(=O)NC(=O)C1)N1CC(=O)NC(=O)C1` [R=R'=CH3 and R"=H (meso)], for which the “protective effect” value in data set [1] is recorded as “either no protective activity or only minimal protective activity”.

In the case of `CN1C(=O)CN(CCN2CC(=O)N(C)C(=O)C2)CC1=O` [R=R'=H and R"=CH3], the “protective effect” value in data set [1] was “either no protective activity or only minimal protective activity”.

For `O=C1CN(CCN2CC(=O)NC(=O)C2)CC(=O)N1` [R=R'=R"=H], the “protective effect” value in data set [1] was “either no protective activity or only minimal protective activity”.

Regarding `O=C1CN(CCN2CC(=O)N(CN3CCOCC3)C(=O)C2)CC(=O)N1CN1CCOCC1` [bimolane], the “protective effect” value in data set [1] is “give protection against the lethal effects of daunorubicin”.

As for `COc1cccc2c1C(=O)c1c(O)c3c(c(O)c1C2=O)C[C@@](O)(C(=O)CO)C[C@@H]3O[C@H]1C[C@H](N)[C@H](O)[C@H](C)O1` [doxorubicin], in data set [5] (doxorubicin 4 mg/kg i.v., pretreated with saline i.p.), the “reduction in body weight in the first three weeks after treatment” value is given as greater than 10%. Further, in data set [5] (setting [10]), the “W2: mean body weight at 4 weeks after treatment” value is reported as 381 ± 8, the “W3: mean body weight at 8 weeks after treatment” value worked out at 324 ± 27 and the “ΔW(%): maximum reduction in body weight in the first 3 weeks after treatment” value worked out at 11.6 ± 0.7%. Also, the “W1: mean body weight of animals at the time of injection” value in data set [5] (saline i.p. + doxorubicin 4 mg/kg i.v. after 1 hour, baseline) amounted to 447 ± 11. In data set [3] (setting [11]), the “reduction in cardiac output” value turned out to be 60% and the “reduction in heart rate” value stood at 35%. In addition, the death during study entry in data set [3] (saline + doxorubicin 4 mg/kg, 9 animals) is “one animal died just before 8 weeks”. For the same molecule, in data set [3] (setting [12]), the “RCO: mean relative cardiac output (treated / age-matched control)” value amounted to 0.41 ± 0.04, the “RHR: mean relative heart rate (treated / age-matched control)” value is listed as 0.65 ± 0.19 and the Survival is on record as 8/9. Besides, the “Incidence of CHF (congestive heart failure)” value in data set [3] (setting [10]) is given as 0/8.
